Experimental data: the supplement of paper PMC10883282
Structures can show the parent of a compound that is named as a salt. ± gives the standard deviation of the averaged measurements.

System: SW1353
Assay: relative viability vs DMSO control (72 h) (fraction); higher = more viable cells
Method in brief: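 Percent growth from ATPLite readings, averaged over up to triplicate wells, was used as relative viability. Sarcoma cell lines were seeded into 384-well plates for 80–90% confluence, dosed after 24 h, and kept 72 h at 37 °C, 5% CO2. Data were rescaled to a range where 1 is full and 0 is none.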

SMILES	relative viability (0.00017 µM)	relative viability (0.00051 µM)	relative viability (0.00152 µM)	relative viability (0.00457 µM)	relative viability (0.01372 µM)	relative viability (0.04115 µM)	relative viability (0.1235 µM)	relative viability (0.3704 µM)	relative viability (1.111 µM)	relative viability (3.333 µM)	relative viability (10 µM)	relative viability (2 pM)	relative viability (5 pM)	relative viability (15 pM)	relative viability (50 pM)	relative viability (0.00014 µM)	relative viability (0.00041 µM)	relative viability (0.0012 µM)	relative viability (0.0037 µM)	relative viability (0.011 µM)	relative viability (200 fM)	relative viability (600 fM)
CCCS(=O)(=O)Nc1ccc(F)c(C(=O)c2c[nH]c3ncc(-c4ccc(Cl)cc4)cc23)c1F [Vemurafenib]	0.958 ± 0.033	0.979 ± 0.055	0.965 ± 0.038	0.954 ± 0.052	1.01 ± 0.011	0.993 ± 0.022	0.949 ± 0.032	0.981 ± 0.031	0.925 ± 0.015	0.703 ± 0.024	0.567 ± 0.14											
COCc1c(-c2cc3cc(C)cc(OC)c3s2)c2c(N)ncnn2c1CN1CCNC(=O)C1 [Rogaratinib]	1.075 ± 0.01	1.03 ± 0.021	0.977 ± 0.025	1.01 ± 0.036	0.964 ± 0.032	0.901 ± 0.028	0.879 ± 0.0097	0.819 ± 0.031	0.795 ± 0.014	0.757 ± 0.013	0.691 ± 0.021											
C=CC(=O)N1CCC([C@@H]2CCNc3c(C(N)=O)c(-c4ccc(Oc5ccccc5)cc4)nn32)CC1 [Zanubrutinib]	1.07 ± 0.066	1.05 ± 0.048	1.04 ± 0.034	1.03 ± 0.038	1.03 ± 0.044	1.03 ± 0.044	1.02 ± 0.029	0.965 ± 0.034	0.917 ± 0.057	0.828 ± 0.041	0.657 ± 0.023											
COc1cccc2c1C(=O)c1c(O)c3c(c(O)c1C2=O)C[C@@](O)(C(=O)CO)C[C@@H]3O[C@H]1C[C@H](N)[C@H](O)[C@H](C)O1 [Doxorubicin Hydrochloride]	0.948 ± 0.043	0.971 ± 0.029	0.958 ± 0.022	0.949 ± 0.013	0.882 ± 0.043	0.81 ± 0.013	0.661 ± 0.029	0.376 ± 0.017	0.162 ± 0.0035	0.181 ± 0.011	0.115 ± 0.0047											
CC(C)NC(=O)C1CCC(n2c(NC(=O)c3ccc(F)cc3)nc3ccc(CN4CCC(C(C)(C)O)CC4)cc32)CC1 (stereo not drawn) [Belizatinib]	1.02 ± 0.03	0.987 ± 0.045	1.02 ± 0.014	1.05 ± 0.062	1.03 ± 0.015	1.03 ± 0.03	0.944 ± 0.012	0.929 ± 0.022	0.808 ± 0.03	0.648 ± 0.021	0.441 ± 0.024											
COc1cc2/c(=N/c3ccc(Br)cc3F)nc[nH]c2cc1OCC1CCN(C)CC1 [Vandetanib]	0.952 ± 0.029	0.962 ± 0.017	0.941 ± 0.04	0.988 ± 0.018	0.976 ± 0.029	0.952 ± 0.032	0.957 ± 0.045	0.9245 ± 0.0051	0.92 ± 0.013	0.558 ± 0.019	0.0143 ± 0.0022											
C[C@@H]1CCN(C(=O)CC#N)C[C@@H]1N(C)c1ncnc2[nH]ccc12 [Tofacitinib]	1.08 ± 0.025	1.07 ± 0.06	1.03 ± 0.036	1.04 ± 0.027	0.986 ± 0.039	1.02 ± 0.031	0.989 ± 0.033	1.01 ± 0.034	0.998 ± 0.054	1 ± 0.022	0.884 ± 0.035											
Cn1cnc2c(F)c(Nc3ccc(Br)cc3F)c(C(=O)NOCCO)cc21 [Binimetinib]	1.06 ± 0.021	1.08 ± 0.032	1.04 ± 0.019	0.993 ± 0.018	0.981 ± 0.038	0.889 ± 0.065	0.841 ± 0.092	0.832 ± 0.019	0.806 ± 0.019	0.739 ± 0.026	0.661 ± 0.013											
Cc1nc(-c2cn3c(n2)-c2ccc(-c4cnn(C(C)(C)C(N)=O)c4)cc2OCC3)n(C(C)C)n1 [Taselisib]	0.925 ± 0.035	0.933 ± 0.02	0.953 ± 0.025	0.971 ± 0.013	0.884 ± 0.043	0.856 ± 0.031	0.785 ± 0.03	0.762 ± 0.014	0.69 ± 0.021	0.599 ± 0.021	0.469 ± 0.0077											
Nc1cc(C(F)(F)F)c(-c2cc(N3CCOCC3)nc(N3CCOCC3)n2)cn1 [Buparlisib]	0.984 ± 0.018	0.956 ± 0.011	0.971 ± 0.011	0.982 ± 0.042	0.966 ± 0.059	0.9295 ± 0.0043	0.889 ± 0.03	0.835 ± 0.018	0.654 ± 0.0079	0.381 ± 0.015	0.266 ± 0.0047											
Cc1cnc(Nc2ccc(OCCN3CCCC3)cc2)nc1Nc1cccc(S(=O)(=O)NC(C)(C)C)c1 [Fedratinib]	1.058 ± 0.01	1.02 ± 0.05	1.03 ± 0.038	1.02 ± 0.016	0.987 ± 0.048	1 ± 0.046	0.915 ± 0.018	0.764 ± 0.036	0.533 ± 0.022	0.184 ± 0.0053	0.00437 ± 0.0012											
COc1cc2c(Oc3ccc4[nH]c(C)cc4c3F)ncnc2cc1OCCCN1CCCC1 [Cediranib]	0.971 ± 0.026	0.993 ± 0.025	1.004 ± 0.0039	0.999 ± 0.024	0.954 ± 0.011	0.949 ± 0.016	0.908 ± 0.013	0.848 ± 0.035	0.79 ± 0.034	0.751 ± 0.11	0.0589 ± 0.0064											
CC(=O)Nc1cccc(-n2c(=O)n(C3CC3)c(=O)c3c(Nc4ccc(I)cc4F)n(C)c(=O)c(C)c32)c1 [Trametinib]	1.02 ± 0.025	1.01 ± 0.034	0.942 ± 0.024	0.862 ± 0.014	0.745 ± 0.014	0.69 ± 0.031	0.642 ± 0.029	0.613 ± 0.012	0.571 ± 0.025	0.5524 ± 0.0038	0.509 ± 0.019											
CC(C)N1CCN(Cc2cnc(-c3cc(-c4cccc5[nH]ccc45)cc4[nH]ncc34)o2)CC1 [Nemiralisib]	1.07 ± 0.033	0.997 ± 0.044	0.992 ± 0.023	0.99 ± 0.032	0.983 ± 0.02	0.965 ± 0.043	0.948 ± 0.04	0.914 ± 0.025	0.85 ± 0.053	0.721 ± 0.044	0.59 ± 0.067											
Cc1cc(Nc2ncnc3ccc(NC4=NC(C)(C)CO4)cc23)ccc1Oc1ccn2ncnc2c1 [Tucatinib]	1.06 ± 0.053	1.04 ± 0.03	1.06 ± 0.03	1.04 ± 0.043	0.989 ± 0.045	0.931 ± 0.026	0.936 ± 0.031	0.895 ± 0.026	0.855 ± 0.053	0.897 ± 0.064	0.936 ± 0.0098											
COc1cc2c(cc1O)CCN[C@]21CS[C@@H]2c3c(OC(C)=O)c(C)c4c(c3[C@H](COC1=O)N1[C@@H]2[C@H]2c3c(cc(C)c(OC)c3O)C[C@@H]([C@@H]1O)N2C)OCO4 [Trabectedin]												1.09 ± 0.017	1.09 ± 0.027	1.06 ± 0.03	1.04 ± 0.013	1.04 ± 0.03	0.92 ± 0.018	0.0356 ± 0.003	0.229 ± 0.0077	0.186 ± 0.015	1.1 ± 0.027	1.1 ± 0.012
C[C@@H]1COCCN1c1cc(-c2ccnn2C)c2ccnc(-c3ccn[nH]3)c2n1	0.988 ± 0.026	0.94 ± 0.015	0.974 ± 0.035	0.978 ± 0.065	0.933 ± 0.059	0.872 ± 0.028	0.769 ± 0.026	0.624 ± 0.027	0.507 ± 0.0081	0.41 ± 0.005	0.392 ± 0.014											
Cc1cc(C)c(/C=C2\C(=O)Nc3ccccc32)[nH]1 [Semaxanib]	0.919 ± 0.019	0.8637 ± 0.004	0.898 ± 0.032	0.897 ± 0.043	0.865 ± 0.022	0.895 ± 0.052	0.892 ± 0.016	0.886 ± 0.017	0.872 ± 0.04	0.818 ± 0.022	0.788 ± 0.032											
